From patent US6544540B2, “Base-triggered release microcapsules” (priority 1998, dated 2003)

Assays:
Lygus hesperus = assay: Test 1 A. Contact/Residue Contact, adult bugs in cages sprayed, mortality; format: in vivo
From the text: Lygus hesperius was the subject in this test. Adult bugs in cages were sprayed at 250 l/h. There were four replicates of 10 insects for 5 rates of each formulation. Mortality assessments were made at 1, 2, 3, 4, 5, and 6 DAT.

Heliothis virescens = assay: Test 1 B. Foliar Persistence, neonate larvae on disks of sprayed detached cotton leaves, mortality; format: in vivo; settings: cotton leaf disks

CCOP(=S)(OCC)Oc1nc(Cl)c(Cl)cc1Cl [Chlorpyrifos technical, chlorpyrifos]
LC50 1DAT (Lygus hesperus; mortality at 1 DAT, sprayed at 250 l/h): 313 ppm | LC50 2DAT (Lygus hesperus; mortality at 2 DAT, sprayed at 250 l/h): 310 ppm | LC50 3DAT (Lygus hesperus; mortality at 3 DAT, sprayed at 250 l/h): 311 ppm | LC50 4DAT (Lygus hesperus; mortality at 4 DAT, sprayed at 250 l/h): 313 ppm | LC50 5DAT (Lygus hesperus; mortality at 5 DAT, sprayed at 250 l/h): 313 ppm | LC50 6DAT (Lygus hesperus; mortality at 6 DAT, sprayed at 250 l/h): 325 ppm | LC50 (Lygus hesperus; previous test results, Lygus hesperus contact/residue contact): ~300 ppm | LC50 Total (Heliothis virescens; Total over 1-3 DAT): 10.2 ppm | LC50 1DAT (Heliothis virescens; mortality at 1 DAT): 9.8 ppm | LC50 2DAT (Heliothis virescens; mortality at 2 DAT): 8.6 ppm | LC50 3DAT (Heliothis virescens; mortality at 3 DAT): 12.2 ppm
